Reference: patent US20250235410A1, “WATER-SOLUBLE CANNABIDIOL MICROCAPSULES AND PREPARATION METHOD THEREOF” (Northeast Agricultural University, priority 2022, published 2025)

Assays:
[1] = Influence of incandescent light on stability (retention rate of CBD); type: physicochemical; details: 15th day of incandescent light (25 W), 4 °C, sealed
Procedure: (§1) Determination of retention rate of CBD in MRPs-CBD microcapsules: the above method to determine CBD content in MRPs-CBD microcapsules is used to accurately determine the initial CBD content in MRPs-CBD microcapsules and the CBD content retained in microcapsules under different treatment methods, and the retention rate of CBD in microcapsules is calculated according to the following formula: […]
A proper amount of samples are weighed, sealed, placed under incandescent light (25 W) at 4° C. for 15 d, and taken out on the 1st, 3rd, 6th, 9th, 12th and 15th day respectively, and the retention rate of CBD is determined.

[2] = Release in simulated intestinal juice; type: in vitro ADME; details: 1 h in simulated intestinal juice
Procedure: An appropriate amount of samples are weighed and released in simulated intestinal juice. Samples are taken according to the time gradient of 0.5, 1.0, 1.5, 2.0, 2.5 and 3.0 h, and the cumulative release rate of CBD is determined.

[3] = Influence of temperature on stability (retention rate of CBD); type: physicochemical; details: 4-100 °C, sealed, dark, 12 h
Procedure: Determination of retention rate of CBD in MRPs-CBD microcapsules: the above method to determine CBD content in MRPs-CBD microcapsules is used to accurately determine the initial CBD content in MRPs-CBD microcapsules and the CBD content retained in microcapsules under different treatment methods, and the retention rate of CBD in microcapsules is calculated according to the following formula:
An appropriate amount of samples are weighed, placed in a sealed and dark environment at 4° C., 25° C., 37° C., 50° C., 80° C. and 100° C. for 12 h and taken out, and the retention rate of CBD is determined.

[4] = Release in simulated gastric juice; type: in vitro ADME; details: 1 h in simulated gastric juice
Procedure: An appropriate amount of samples are weighed and released in simulated gastric juice. Samples are taken according to the time gradient of 0.5, 1.0, 1.5, 2.0, 2.5 and 3.0 h, and the cumulative release rate of CBD is determined.

[5] = Influence of oxygen on stability (retention rate of CBD); type: physicochemical; details: 15th day, dark, aerobic
Procedure: as §1
An appropriate amount of samples are weighed, placed at 4° C. and 25° C. for 15 days in the dark and aerobic conditions, and taken out at on 1st, 3rd, 5th, 7th, 9th, 12th and 15th day to determine the retention rate of CBD. See FIG. 8A and FIG. 8B for the test results.

[6] = ABTS+ radical cation scavenging rate; type: biochemical; details: P<0.05
Procedure: (§2) The antioxidant activity of glycosylation product-based water-soluble cannabidiol microcapsules is analyzed through radical scavenging rate. The scavenging ability of 1,1-Diphenyl-2-picrylhydrazyl (DPPH) and, 2′-azino-bis (3-ethylbenzothiazoline-6-sulfonic acid (ABTS^+) radical cation is mainly studied.
Determination of ABTS^+ radical scavenging rate: 10 mg of ABTS and 2.9 mg of potassium persulfate are taken, dissolved in 10 mL of 0.01 mol/L sodium phosphate buffer, and stored in the dark at 25° C. for 15 h for later use. 2.5 mL ABTS solution is taken, added with 20 mL of 0.01 mol/L sodium phosphate buffer, and diluted with distilled water so that the absorbance at 734 nm is 0.7, to obtain an ABTS analysis solution. 1 mL of CBD with different concentrations and methanol solutions of microcapsules with different concentrations are taken respectively, added with 2 mL of above ABTS analysis solution to the test tube for reacting for 10 min, and then 95% ethanol is used as reference solution to read the absorbance value at 734 nm. The absorbance value of the sample mixed with ABTS analysis solution is marked as A, the absorbance value of the sample mixed with 95% ethanol solution is Ai, and the absorbance value of the single ABTS analysis solution is Aj. The calculation formula is as follows: […]

[7] = DPPH radical scavenging rate; type: biochemical; details: P<0.05
Procedure: as §2
Determination of DPPH radical scavenging rate: 1 mL of CBD with different concentrations, methanol solution of microcapsules with different concentrations and 4 mL of 0.1 mmol/L DPPH solution (DPPH dissolved in 95% ethanol) are mixed evenly, and kept in the dark for 30 min at room temperature. Using 95% ethanol as reference solution, the absorbance at 517 nm is read. The absorbance value of the sample mixed with DPPH ethanol solution is recorded as A, the absorbance value of the sample mixed with 95% ethanol solution is Ai, and the absorbance value of the single DPPH ethanol solution is Aj. The calculation formula is as follows: […]

[8] = Influence of environmental pH value on stability (retention rate of CBD); type: physicochemical; details: 4 °C, 12 h
Procedure: as §1
A proper amount of samples are weighed and dissolved in distilled water, and the pH values of the solutions are adjusted as 1, 2, 3, 4, 5, 6, 7, 8, 9, 10, 11 and 12 respectively, and samples are placed in a sealed and dark environment at 4° C. for 12 h, then taken out and its retention rate of CBD is determined.

C=C(C)[C@@H]1CCC(C)=C[C@H]1c1c(O)cc(CCCCC)cc1O [unencapsulated CBD, Cannabidiol]
retention rate of CBD [1]: 24.53±1.56% | fate of CBD in simulated intestinal juice [2]: completely digested and degraded | retention rate of CBD, trend with increase of temperature [3]: continuous downward trends | fate of CBD in simulated gastric juice [4]: completely digested and degraded | retention rate of CBD ([5]; 4 °C): 43.87±1.83% | retention rate of CBD ([5]; 25 °C): 38.85±1.76% | ABTS+ scavenging rate, change with increase of CBD concentration [6]: increase significantly | DPPH scavenging rate, change with increase of CBD concentration [7]: increase significantly | retention rate of CBD, trend ([8]; environmental pH increases from 1 to 6): increase significantly | retention rate of CBD, trend ([8]; environmental pH increases from 8 to 12): decrease significantly
